ChEMBL document CHEMBL3856225, “Design, synthesis and biological evaluation of 5-benzylidene-2-iminothiazolidin-4-ones as selective GSK-3β inhibitors” (Eur J Med Chem, 2016)

Tests used:
[1] = target: T1, Glycogen synthase kinase-3 beta (Homo sapiens, UniProt P49841); experiment: Inhibition of His-tagged full length human recombinant GSK-3beta expressed in Baculovirus at 0.5 uM using Ser/Thr9 peptide as substrate by Z' LYTE assay relative to control
Target sequence in this assay (P49841 whole entry, looked up): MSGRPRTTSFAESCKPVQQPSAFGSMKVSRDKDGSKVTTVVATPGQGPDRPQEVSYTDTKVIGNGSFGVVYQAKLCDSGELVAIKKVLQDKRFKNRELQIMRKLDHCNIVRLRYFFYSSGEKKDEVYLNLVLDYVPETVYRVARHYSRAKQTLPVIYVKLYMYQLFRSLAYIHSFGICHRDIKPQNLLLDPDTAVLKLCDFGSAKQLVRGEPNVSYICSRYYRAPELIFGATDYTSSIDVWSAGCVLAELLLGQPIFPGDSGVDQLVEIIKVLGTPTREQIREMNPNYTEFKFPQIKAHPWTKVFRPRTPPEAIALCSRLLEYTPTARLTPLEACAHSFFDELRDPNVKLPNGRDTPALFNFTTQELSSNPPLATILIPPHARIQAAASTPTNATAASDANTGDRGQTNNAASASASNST

[2] = target: Cyclin-dependent kinase 2 (Homo sapiens) (UniProt P24941); experiment: Inhibition of GST-tagged human recombinant CDK2 assessed as residual activity at 2 uM using Ser/Thr12 peptide as substrate by Z' LYTE assay relative to control
[3] = target: T1, Glycogen synthase kinase-3 beta; experiment: Inhibition of His-tagged full length human recombinant GSK-3beta expressed in Baculovirus using Ser/Thr9 peptide as substrate by Z' LYTE assay
Target sequence in this assay (P49841 whole entry): as the sequence (P49841 whole entry, looked up) above

| inhibition [1] [%] | Activity [2] [%] | IC50 [3] [nM] | Compound |
| --- | --- | --- | --- |
| > 50 | 39.1 | 51.7 | CCOc1cc(/C=C2\S/C(=N\Cc3ccccc3)NC2=O)ccc1O |
| > 50 | – | 80.5 | COc1ccc(/C=C2\SC(=N)NC2=O)cc1OC |
| > 50 | 68.9 | 40 | O=C1N/C(=N/c2ccccc2)S/C1=C\c1ccc(F)cc1 |
| > 50 | 68.4 | 24 | O=C1N/C(=N/Cc2ccccc2)S/C1=C\c1ccc(Cl)c([N+](=O)[O-])c1 |
| > 50 | – | – | COc1cc(/C=C2\SC(=N)NC2=O)ccc1O |
| > 50 | 63.2 | 27.1 | O=C1N=C(NCc2ccccc2)S/C1=C\c1ccc(O)cc1 |
| > 50 | 53.8 | 44.3 | COc1ccc(/C=C2\S/C(=N\Cc3ccccc3)NC2=O)cc1OC |
| > 50 | 73 | 2.1 | COc1ccc(/C=C2\S/C(=N\Cc3ccccc3)NC2=O)cc1[N+](=O)[O-] |
| > 50 | 69.6 | 27.7 | O=C1N/C(=N/c2ccccc2)S/C1=C\c1ccc(O)cc1 |
| > 50 | – | 84.8 | N=C1NC(=O)/C(=C/c2ccc(O)c(C(=O)O)c2)S1 |
